# Reference: patent US8680087B2, “Macrocyclic amides, pharmaceutical compositions, preparation methods and uses thereof” (Yuxi Winhey Bio-Tech Co., Ltd., priority 2009, dated 2014)
# Where two headings read alike, the source gives them in different places.
# Columns and labels:
# Assay type in all cases: cell-based
# [1] = test system: Staphylococcus epidermidis; test: Antibacterial activity test, standard dilution method (MIC); conditions: 24 hr and 48 hr, trypticase soy broth, 35° C.
# Method: (§1) The following antibacterial activity test of WH-21091 was conducted to illustrate the antibacterial activity of WH-21091. Standard dilution method was adopted, and the measurement was conducted under 35° C. After culturing for 24 hours, the minimum inhibition concentrations (MICs) of WH-21091 were obtained.
# [2] = test system: Escherichia coli; test: as above; conditions: 24 hr and 48 hr, trypticase soy broth, 35° C.
# Method: as §1
# [3] = test system: S. aureus MSRA (clinical isolates of methicilllin-resistant strains); test: as above; conditions: Staphylococcus aureus
# Method: as §1
# [4] = test system: Enterococcus faecalis; test: as above; conditions: 24 hr and 48 hr, trypticase soy broth, 35° C.
# Method: as §1
# [5] = test system: Streptococcus pyogenes; test: as above; conditions: 24 hr and 48 hr, trypticase soy broth, 35° C.
# Method: as §1
# [6] = test system: Pseudomonas aeruginosa; test: as above; conditions: 24 hr and 48 hr, trypticase soy broth, 35° C.
# Method: as §1
# [7] = test system: human lung cancer H460 cells; test: In vitro antitumor activity test (method of Skehan et al.); conditions: NCI-H460
# Method: (§2) Following the method described by Skehan et al. (1990), in vitro antitumor activity tests of WH-21091 on human lung cancer H460, breast cancer MCF-7 and cervix cancer Hela cells were conducted.
# [8] = test system: breast cancer MCF-7 cells; test: as above; conditions: Homo sapiens, MCF7; MCF-7 breast cancer cells
# Method: as §2
# [9] = test system: cervix cancer Hela cells; test: as above; conditions: Homo sapiens
# Method: as §2
compound,measurement,setting,value
CC1CC(C)CC(C(O)Cc2cccc(O)c2C(=O)O)NC(=O)C(O)C(O)C(O)C1 (stereo not drawn) [WH-21091],MIC,[1],8 µg/mL
same,MIC,[2],4 µg/mL
same,MIC,"[3]; S. aureus MSRA, clinical isolates of methicilllin-resistant strains, 24 hr and 48 hr, trypticase soy broth, 35° C., read-out: MIC",4 µg/mL
same,MIC,[4],32 µg/mL
same,MIC,[5],4 µg/mL
same,MIC,[6],> 32 µg/mL
same,IC50,[7],0.1 µg/mL
same,IC50,[8],0.81 µg/mL
same,IC50,[9],0.24 µg/mL
"CC[C@H]1OC(=O)[C@H](C)[C@@H](O[C@H]2C[C@@](C)(OC)[C@@H](O)[C@H](C)O2)[C@H](C)[C@@H](O[C@@H]2O[C@H](C)C[C@H](N(C)C)[C@H]2O)[C@](C)(O)C[C@@H](C)C(=O)[C@H](C)[C@@H](O)[C@]1(C)O [erythromycin, reference compound]",MIC,[1],0.25 µg/mL
same,MIC,[2],1 µg/mL
same,MIC,[3],> 32 µg/mL
same,MIC,[4],> 32 µg/mL
same,MIC,[5],0.03 µg/mL
same,MIC,[6],> 32 µg/mL
